Patent US6319929A, “Suksdorfin analogs, compositions thereof, and methods for making and using thereof” (priority 1998, dated 2001)
“And” between values parts separate entries of the source, which are not always exact repeats. Equal entries are not always repeated. Where two headings read alike, the source gives them in different places.

Key:
[1] = test system: chronically HIV-1 infected ACH-2 cells; assay: Virus expression from chronically HIV-1 infected T cell line ACH-2 (p24 antigen ELISA); assay type: cell-based
Method: (§1) Effects of suksdorfin analogs on Chronically HIV-1 infected cells. The experimental design is as follows: The phorbol ester, PMA (10^-8 M) and various concentrations of suksdorfin were either added or not added to both the chronically HIV-1 infected T cell line (ACH-2) and to the chronically HIV-1 infected monocytic cell line (U1). Cell-free supernatant was collected 72 hours post culture for p24 antigen ELISA.
Results (Table 11) from adding compound 16 to the chronically HIV-infected T cell line, ACH-2, according to methods in above examples. ACH-2 are a chronically HIV-1 infected T cell line. It was derived from A3.01 cells which is a subclone of the CEM cell line. The data below indicates the following points:
(§2) Chronically HIV-1 infected cell lines. HIV-1 chronically infected T cell line, ACH-2^12, and HIV-1 chronically infected promonocytic cell line, U1 13, were continuously maintained in RPMI 1640 with 10% fetal calf serum (FCS). For experiments, the cell lines were only used in the […] of growth. Cells (0.5×10^6 cells/well) and either various concentrations of suksdorfin or medium alone were added to 24-well plates in the presence or absence of PMA (10^-8 M). After 72 hours at 37° C. and 5% CO2, an aliquot of the cell-free supernatants were collected and analyzed for p24 antigen by ELISA (see below for details of p24 antigen ELISA).

[2] = test system: HIV-1 replication in H9 cells; assay: HIV-1 replication inhibition in acutely infected H9 lymphocytes (p24 antigen ELISA); assay type: cell-based, HIV-1 (IIIB strain)
Method: HIV inhibition assay. The HIV inhibition was measured as described herein. Briefly, H9 cells, a T cell line, (3.5×10^6 cells/ml) were incubated in the presence or absence of HIV-1 (IIIB strain, 0.01-0.1 TCID50 /cell) for 1 hour at 37° C. Cells were washed thoroughly and resuspended at a final concentration of 2×10^5 cells/ml in the presence or absence of compound. After incubation for 3-4 days at 37° C., the cell density of uninfected cultures was determined by cell count to assess toxicity of the drug. An aliquot of each cell-free supernatant was assayed by p24 antigen ELISA to quantitate the amount of HIV-1 present in the infected cultures. Test compounds were considered to be active at a particular concentration if p24 antigen levels were less than 70% of infected, untreated controls and were nontoxic to uninfected H9 cells.
HIV Growth Inhibition Assay: The T cell line, H9, and the promonocytic cell line, U937, were maintained separately in continuous culture with complete medium (RPMI 1640 and […] fetal calf serum (FCS) at 5% CO2 and 37° C. Cell lines were used in experiments only when in log phase of growth; whereas, uninfected peripheral blood mononuclear cells (PBMCs) were first stimulated with PHA (1 μg/ml) for 3 days. All cell targets were incubated with HIV-1 (IIIB isolate, TCID50 10 ^4 IU/mi, at a multiplicity of infection of 0.1-0.01 IU/cell) for 1 hour at 37° C. and 5% CO2. The cell lines and PBMCs were washed thoroughly to remove unabsorbed virions and resuspended at 4×10^5 cells/ml in complete medium or complete medium with 10% v/v interleukin […] IL-2, respectively. Aliquots ( ml) were placed in wells of 24-well culture plates containing an equal volume of test compound (diluted in the appropriate culture medium). After incubation for 4 days at 37° C., cell density of uninfected cultures was determined by counting cells in a Coulter counter to assess toxicity of the test compound. A p24 antigen ELISA assay was used to determine the level of virus released in the medium of the HIV-infected cultures. The p24 antigen assay uses a HIV-1 anti-p24 specific monoclonal antibody as the capture antibody coated-on 96-well plates. Following a sample incubation period, rabbit serum containing antibodies for HIV-1 p24 is used to tag any p24 "captured" onto the microtiter well surface. Peroxidase conjugated goat anti-rabbit serum is then used to tag HIV-1 p24 specific rabbit antibodies which have complexed with captured p24. […] The cut-off for the p24 ELISA assay is 12. pg/ml. P24 in the culture medium was quantitated against a standard curve containing known amounts of p24. The effective (EC50) and inhibitory (IC50) concentrations (for anti-HIV activity and cytotoxicity, respectively) were determined graphically. Both the EC50 and IC50 values were calculated by plotting drug concentration versus percent inhibition, and then identifying a 50% inhibition value from the graph.

[3] = test system: chronically HIV-1 infected U1 cells; assay: Virus expression from chronically HIV-1 infected monocytic cell line U1 (p24 antigen ELISA); assay type: cell-based
Method: as §1
Compound 16 was also assayed on ACH-2 (chronically HIV-1 infected T cell line). U1 cells are also chronically HIV-1 infected cells but they are from the monocytic cell line, U937. The data presented in Table 8 indicates the following points:
as §2

For `Cc1cn([C@H]2C[C@H](N=[N+]=[N-])[C@@H](CO)O2)c(=O)[nH]c1=O` [AZT, azidothymidine, reference compound], the P24 ([1]; Table 11 (ACH-2), +PMA, 0.01 μg/ml) was 21,373 pg/ml, the P24 ([1]; Table 11 (ACH-2), +PMA, 0.1 μg/ml) was 10,621 pg/ml and the P24 ([1]; Table 11 (ACH-2), +PMA, 1 μg/ml) was 17,088 pg/ml. The P24 ([1]; Table 11 (ACH-2), +PMA, 10 μg/ml) was 16,584 pg/ml, the P24 ([1]; Table 11 (ACH-2), -PMA, 0.01 μg/ml) was 796 pg/mL and the P24 ([1]; Table 11 (ACH-2), -PMA, 0.1 μg/ml) was 942 pg/mL. The P24 ([1]; Table 11 (ACH-2), -PMA, 1 μg/ml) was 904 pg/mL, the P24 ([1]; Table 11 (ACH-2), -PMA, 10 μg/ml) was 939 pg/mL and the EC50 ([2]; Human immunodeficiency virus 1, H9, Table 3, H9 lymphocytes) was 40000 pM. For the same compound, the EC50 ([2]; Human immunodeficiency virus 1, H9, Table 17, acutely infected H9 lymphocytes) was 150000 pM, the “Therapeutic Index” value ([2]; Table 3, H9 lymphocytes) was 50,000 and the “Therapeutic Index” value ([2]; Table 17, H9) was 12,500. For the same compound, the P24 ([3]; U1, +PMA, 0.01 μg/ml) was 9626 pg/mL, the P24 ([3]; U1, +PMA, 0.1 μg/ml) was 4363 pg/mL and the P24 ([3]; U1, +PMA, 1 μg/ml) was 7898 pg/mL. It also gave a P24 ([3]; U1, +PMA, 10 μg/ml) of 8653 pg/mL, a P24 ([3]; U1, -PMA, 0.01 μg/ml) of 50 pg/mL and a P24 ([3]; U1, -PMA, 0.1 μg/ml) of 53 pg/mL. The P24 ([3]; U1, -PMA, 1 μg/ml) was 72 pg/mL and the P24 ([3]; U1, -PMA, 10 μg/ml) was 97 pg/mL.
With `CC1(C)Oc2ccc3ccc(=O)oc3c2[C@@H](OC(=O)[C@@]23CC[C@@](C)(C(=O)O2)C3(C)C)[C@H]1OC(=O)[C@@]12CC[C@@](C)(C(=O)O1)C2(C)C` [Compound 16, 3',4'-Di-O-(-)-Camphanoyl-(+)-cis-Khellactone] the P24 ([1]; ACH-2, +PMA, 0.0000102 μg/ml) was 17,938 pg/ml, the P24 ([1]; ACH-2, +PMA, 0.0000512 μg/ml) was 16,079 pg/ml and the P24 ([1]; ACH-2, +PMA, 0.00025 μg/ml) was 22,756 pg/ml. For the same compound, the P24 ([1]; ACH-2, +PMA, 0.00128 μg/ml) was 22,344 pg/ml, the P24 ([1]; ACH-2, +PMA, 0.032 μg/ml) was 24,650 pg/ml and the P24 ([1]; ACH-2, +PMA, 0.064 μg/ml [0.010 μM] (so in the source)) was 24,364 pg/ml. The P24 ([1]; ACH-2, +PMA, 0.16 μg/ml) was 21,865 pg/ml, the P24 ([1]; ACH-2, +PMA, 0.8 μg/ml) was 20,183 pg/ml and the P24 ([1]; ACH-2, +PMA, 4 μg/ml) was 23,547 pg/ml. The P24 ([1]; ACH-2, +PMA, 20 μg/ml) was 24,858 pg/ml, the P24 ([1]; ACH-2, -PMA, 0.0000102 μg/ml) was 666 pg/mL and the P24 ([1]; ACH-2, -PMA, 0.0000512 μg/ml) was 659 pg/mL. For the same compound, the P24 ([1]; ACH-2, -PMA, 0.00025 μg/ml) was 777 pg/mL, the P24 ([1]; ACH-2, -PMA, 0.00128 μg/ml) was 811 pg/mL and the P24 ([1]; ACH-2, -PMA, 0.032 μg/ml) was 1319 pg/mL. For the same compound, the P24 ([1]; ACH-2, -PMA, 0.064 μg/ml [0.010 μM] (so in the source)) was 955 pg/mL, the P24 ([1]; ACH-2, -PMA, 0.16 μg/ml) was 1174 pg/mL and the P24 ([1]; ACH-2, -PMA, 0.8 μg/ml) was 976 pg/mL. The P24 ([1]; ACH-2, -PMA, 4 μg/ml) was 1194 pg/mL, the P24 ([1]; ACH-2, -PMA, 20 μg/ml) was 1509 pg/mL and the “effect on virus expression of PMA-stimulated ACH-2 cells (in words)” value ([1]; with PMA) was “did not suppress virus replication”. For the same compound, the “induction of virus expression from ACH-2 cells (in words)” value ([1]; without PMA) was “did not induce the ACH-2 cells to make virus”, the suppression ([2]; 0.000256 μg/ml, separate assays, H9) was 35% and the inhibition at 0.000256 µg/mL ([2]; Human immunodeficiency virus 1, H9, 0.000256 μg/ml, separate assays, H9, read-out: suppression) was 44%. For the same compound, the EC50 ([2]; Human immunodeficiency virus 1, H9, H9, text to Table 7, read-out: EC50) was ≥ 0.000256 µg/mL and 0.41 nM, the EC50 ([2]; Human immunodeficiency virus 1, H9, H9 lymphocytes, Table 3, read-out: ED^50 (the source's name)) was at least 410 pM and the EC50 ([2]; Human immunodeficiency virus 1, H9, Table 3, H9 lymphocytes, read-out: EC50) was 410 pM. The EC50 ([2]; Human immunodeficiency virus 1, H9, Table 7, read-out: EC5) was 0.000256 µg/mL and 0.41 nM, the EC50 ([2]; Human immunodeficiency virus 1, H9, Table 17, acutely infected H9 lymphocytes, read-out: EC50) was 410 pM and the “anti-HIV activity in H9 cells (in words)” value ([2]; acutely infected H9 cells) was “potent anti-HIV activity”. The P24 ([3]; U1, +PMA, 0.0000102 μg/ml) was 7328 pg/mL, the P24 ([3]; U1, +PMA, 0.0000512 μg/ml) was 8710 pg/mL and the P24 ([3]; U1, +PMA, 0.00025 μg/ml) was 7757 pg/mL. For the same compound, the P24 ([3]; U1, +PMA, 0.00128 μg/ml) was 6335 pg/mL, the P24 ([3]; U1, +PMA, 0.0064 μg/ml) was 6419 pg/mL and the P24 ([3]; U1, +PMA, 0.032 μg/ml) was 8090 pg/mL. It also gave a P24 ([3]; U1, +PMA, 0.16 μg/ml) of 7162 pg/mL, a P24 ([3]; U1, +PMA, 0.8 μg/ml) of 8390 pg/mL and a P24 ([3]; U1, +PMA, 4 μg/ml) of 8742 pg/mL. It also gave a P24 ([3]; U1, +PMA, 20 μg/ml) of 9530 pg/mL, a P24 ([3]; U1, -PMA, 0.0000102 μg/ml) of 52 pg/mL and a P24 ([3]; U1, -PMA, 0.0000512 μg/ml) of 56 pg/mL. It also gave a P24 ([3]; U1, -PMA, 0.00025 μg/ml) of 78 pg/mL, a P24 ([3]; U1, -PMA, 0.00128 μg/ml) of 99 pg/mL and a P24 ([3]; U1, -PMA, 0.0064 μg/ml) of 90 pg/mL. The P24 ([3]; U1, -PMA, 0.032 μg/ml) was 101 pg/mL, the P24 ([3]; U1, -PMA, 0.16 μg/ml) was 76 pg/mL and the P24 ([3]; U1, -PMA, 0.8 μg/ml) was 88 pg/mL. For the same compound, the P24 ([3]; U1, -PMA, 4 μg/ml) was 41 pg/mL, the P24 ([3]; U1, -PMA, 20 μg/ml) was 95 pg/mL and the “effect on virus expression of PMA-stimulated U1 cells (in words)” value ([3]; with PMA) was “did not suppress virus replication”. The “induction of virus expression from U1 cells (in words)” value ([3]; without PMA) was “did not induce the U1 cells to make virus”.
